A melting point compilation (Tetko et al.; mined from patent text by program, amines drawn as free bases though some values may be those of a salt)

melting point [°C] | Structure (SMILES)
87 to 90 | COc1ccc(-c2cc(C(N)(C(F)(F)F)C(F)(F)F)sc2-c2ccc(OC)cc2)cc1
226 to 227 | CC(C)CC(=O)NCc1ccc(NC(=O)/C=C/c2cnn(C)c2-c2ccc(F)cc2)cc1
240 to 241 | CNC(=O)c1cc2[nH]c(C)nc2c2c1CCC1(Cc3ccccc3C1)N2
> 350 | COc1ccc2sc3cc(-c4nnn[nH]4)ccc3c(=O)c2c1
161 | CCN(CC)C(=O)c1c(O)cc(C(F)(F)F)cc1-c1ccc(OC)c(OC)c1
98 to 99 | CS(=O)c1nnc(-c2ccc3occ(-c4cccc(OC(F)(F)F)c4)c3c2)o1 (centres undefined)
192 to 194 | O=C(Nc1ccc(C(O)(C(F)(F)F)C(F)(F)F)cc1)Oc1ccccc1
170 to 171 | N#Cc1ccccc1OCCc1c[nH]cn1
148 to 150 | CC(=O)O[C@@H]1OCC[C@@H]1NC(=O)[C@H](CC(C)C)NC(=O)c1ccc(N)cc1
168 to 170 | CC(C)(OCc1nn(Cc2ccccc2)c2ccc(Br)cc12)C(=O)O
88.9 to 89.1 | COc1cc(N(Cc2cccc(SC(F)(F)F)c2)C[C@@H](O)C(F)(F)F)cc(OC)c1OC
176 | CCC(=O)OC1C(=O)N(c2nnc(C(C)(C)C)s2)C(=O)N1C (centres undefined)
145 to 148 | CC(C)(C)OC(=O)[C@H](Cc1ccc(O)cc1)NC(=O)c1c(F)cccc1F
151 | COc1c(C)c(C(=O)c2ccc([N+](=O)[O-])cc2)n2ccccc12
293 to 294 | O=S1CCN(c2nc3c(-c4nc(C5CC5)no4)ncn3c3ccccc23)CC1
214 to 217 | CC(C)c1n[nH]c2c(NCc3ccccc3O)ncnc12
40 to 42 | CC(C)(C)[C@H]1OC(=O)[C@H](c2cccc(Cl)c2)O1
215 to 216 | Cc1nnsc1C(=O)c1[nH]c2cc(Cl)ccc2c1CC(=O)O
53 to 54 | Cc1ccc2c(c1)C(=O)C(CC=O)C2 (racemic)
219 | Cc1ccc(COc2cc(C(O)C#Cc3ccc(C(=O)O)cc3)cc3c2C(C)(C)CCC3(C)C)cc1 (centres undefined)
136 to 137 | Nc1cc(OC(=O)Oc2cc(N)c(F)cc2Cl)c(Cl)cc1F
66 to 67 | CCCCOC1C=CC(=O)N1S(=O)(=O)c1ccccc1 (centres undefined)
149 to 151 | c1ccc2c(c1)NCc1nnnn1-2
312 to 321 | Nc1ncc2cc(-c3ccccn3)c(N)nc2n1

melting point [°C] | Structure (SMILES)
213 | COc1nc(Cl)nc(N)c1-c1ccccc1
169 to 172 | CC(C)(C)OC(=O)Nc1ccc(-c2ccco2)cc1[N+](=O)[O-]
169 to 172 | O=C(Nc1ccc(Cl)cc1)NS(=O)(=O)c1ccc2c(c1)CCC2
173 to 175 | CN1C(=O)C(c2ccc(OC(F)F)cc2)(c2cccnc2)N=C1N (centres undefined)
259 to 261 | O=c1ccc2c(-n3cnc(CO)c3)nccc2[nH]1
139 | CC(C)(C#N)c1ccc(C(=O)c2cccs2)cc1
213 to 214 | CC(C)Cc1c2c(nn1C)c(N)nc1ccccc12
208 to 210 | COc1c(F)c(F)c(N)c2c(=O)c(C(=O)O)cn(Cc3ccccc3)c12
177 | CCOC(=O)N1CCC(Nc2nc3cncnc3n2C2CC2)CC1
310 to 335 | CN1CCc2c(ccc3[nH]c(=O)c(=O)[nH]c23)C1
148 to 150 | CC(=O)NC[C@H]1CN(c2ccc(N3CCC(c4nnn[nH]4)CC3)c(F)c2)C(=O)O1
363 to 365 | NC(=O)c1nc(-c2cccc(O)c2)nc2c1[nH]c(=O)n2CC1CCOCC1
189 to 190 | O=C(NCc1ccc(Cl)cc1)c1cnc2cc(C(F)(F)F)ccc2c1O
123 | CCOC(=O)c1ccc2[nH]c(C(=O)OCc3ccccc3)cc2c1
231 to 232 | O=C(O)C1=Cc2cc(Cl)c(Oc3ccc(C(F)(F)F)cc3)cc2OC1C(F)(F)F (centres undefined)
80 to 85 | C=CCn1c(=O)n(CC=C)c(=O)n(-c2cc(N3C(=O)C4=C(CCCC4)C3=O)c(F)cc2Cl)c1=O
92 to 93 | CC(O)CN1CCN(c2cccccc2=O)CC1 (centres undefined)
165 to 166 | COc1cc(C(=O)ON=C(C)N)cc([N+](=O)[O-])c1OC
208 to 210 | CC(C)(C(=O)O)c1ccc2cc(O)ccc2c1
125 to 126 | COCO[C@H]1C(=O)Nc2ccccc2S[C@H]1c1ccc(OC)cc1
169 to 171 | CNCC(O)c1cn(C(c2ccccc2)(c2ccccc2)c2ccccc2)cn1 (centres undefined)
273 to 275 | COc1ccccc1C=C1CCc2c1oc1ccc(C(=O)O)cc1c2=O
157 to 158 | CN(C)CCNC(=O)c1nnc(-c2ccccc2)cc1-c1cccc([N+](=O)[O-])c1
178 to 180 | CCc1nc2c(Cl)cc(F)c(-n3c(=O)cc(C(F)(F)F)[nH]c3=O)c2s1

melting point [°C] | Structure (SMILES)
232 to 236 | Clc1cc(NC23CC4CC(CC(C4)C2)C3)nc(NC23CC4CC(CC(C4)C2)C3)n1
167 to 168 | c1ccc(Cn2ccc(CN3CCC(c4ccccc4)(c4ccccc4)CC3)n2)cc1
222 | COc1oc2cccc(-c3ccc(O)cc3)c2c1C(C)=O
104 to 105 | CCCCNC1=CC(=O)c2c(OC)ccc(OC)c2C1=O
163 to 165 | COC(=O)c1nn(S(=O)(=O)c2ccc(C)cc2)c2ccccc12
218 to 221 | Cc1c(-c2ccncc2)[nH]c(-c2ccncc2)c1C(=O)OC(C)C
114 to 116 | O=C1OC2(CC(c3cccc(Oc4ccccc4)c3)=NO2)c2ccccc21 (centres undefined)
215 to 217 | C[C@H](CO)Nc1nc(SCc2cccc(F)c2F)nc2[nH]c(=O)cnc12
112 to 115 | Cc1ncc(-c2ccc([C@H](C)N3CC[C@](CC(C)(C)O)(c4ccccc4)OC3=O)cc2)cn1
38 to 42 | COc1c2c(c(OC)c(OC)c1OC)CC(CCCCCCCCOc1ccc(Cl)cc1)C2
146 to 148 | CCCCC(=N)NC(=O)NC1CCCCC1
219 to 220 | Nc1cc2c(cc1C(=O)CNC(=O)C(F)(F)F)OCO2
133 to 141 | CCCCC(CC)COC(=O)c1cc(CN(CC(=O)O)CC(=O)O)c(O)c(CN(CC(=O)O)CC(=O)O)c1 (centres undefined)
129 to 133 | CCOC(=O)c1cn(C2CCCCC2)c2cc(Br)ccc2c1=O
150 to 152 | CC(O)c1cc(S(N)(=O)=O)ccc1F (centres undefined)
147 | CN1CCc2c(c(Br)cc3nc(OCc4ccccc4)c(OCc4ccccc4)nc23)C1
154 to 159 | CC(C)(C)OC(=O)N1CCC(c2nc3cc(-c4ccc(-n5cnnn5)c(F)c4)ccc3o2)CC1
106 to 110 | COC(=O)CCCc1cc2nc(Cl)ccc2n1S(=O)(=O)c1ccc2c(c1)OCCN2C
144 | CC(C)(C)OC(=O)NC(=N)NC(=O)OC(C)(C)C
189 to 191 | CC(=Cc1ccc2c(c1)Sc1cc(C=C(C)c3ccccc3)ccc1N2C)c1ccccc1
174 to 175 | CN1C(=O)Cn2c(nn(-c3ccccc3)c2=O)-c2cc(Cl)ccc21
205 | O=c1[nH]c2ncc(-c3cccnc3)nc2n1CC1CCCCC1
85 | CC(C)(C)OC(=O)C=Cc1ccc(NC(=O)C=C2CC(C(=O)OCc3ccccc3)Nc3cc(Cl)cc(Cl)c32)cc1 (racemic)
132 to 134 | Nc1cc(Cl)cc2c(Cl)ccnc12

melting point [°C] | Structure (SMILES)
72 to 73 | FC(F)(F)c1nnc(S)s1
70 | O=C(O)CCOc1ccc(CCNC(=O)C2Cc3ccccc3N2S(=O)(=O)c2ccc(-c3cccc(C(F)(F)F)c3)cc2)cc1 (centres undefined)
143 to 144 | CCOC(=O)c1cccc(C2COc3c(ccc(O)c3C)C2)c1 (centres undefined)
123 to 125 | O=C(N1CCN(c2ccccc2)CC1)N1CCc2ccccc2CO1
102 to 103 | COc1cc2c(cc1Cl)C(C)(C)C(CC=O)C2=O (racemic)
128 | CS(=O)(=O)c1ccc(C(=O)c2cc(-c3ccncc3)c(N3CCOCC3)s2)cc1
140 | O=[N+]([O-])c1cccc(Cc2nnn[nH]2)c1
101 to 103 | COC(=O)CCC(C(=O)c1cccc(O)c1)c1ccccc1C (racemic)
185 | O=C(Nc1ccccc1S(=O)(=O)NCC1CCCCC1)N[C@@H](Cc1ccc(NC(=O)c2c(Cl)cccc2Cl)cc1)C(=O)O
90 | CCOC(=O)C=Cc1cc(C(C)=O)ccc1OC
124 | CC(c1ncnc(Cl)c1Cl)C(O)(Cn1cncn1)c1ccc(F)cc1F (centres undefined)
150 | CC(=O)n1ncc(=O)[nH]c1=O
133 | COC(=O)C(Cc1cc(OC)cc(C(F)(F)F)c1)NC(=O)c1ccccc1 (centres undefined)
131 to 132 | CCCCCCNC(=O)C(C)N1CCN(c2ccccn2)CC1 (centres undefined)
209 to 212 | O=C(O)c1cn(C2CC2)c2nc(Cl)c(F)cc2c1=O
188 to 190 | COC(=O)Nc1cc(OS(=O)(=O)c2ccc(C)cc2)nc(N)n1
201 | COc1ncccc1-c1nc2c(N[C@H]3[C@@H](C(N)=O)[C@@H]4C=C[C@H]3C4)c(Br)cnc2[nH]1
82 to 85 | NCC1(SCc2ccccc2)C2CC3CC(C2)CC1C3 (centres undefined)
174 to 175 | COc1cc2c(cc1OC)C(Cc1ccc(NC(C)=O)c(I)c1)N(C(=O)C(F)(F)F)CC2 (centres undefined)
167 | Cc1ccc(-c2cc(CNc3cc(CNc4cc(-c5ccc(C)cc5)[nH]n4)n[nH]3)n[nH]2)cc1
> 260 | Cc1cccnc1NC(=O)Nc1cccc2c1C1CC(=O)CCN1C2=O (centres undefined)
145 to 147 | CC(C)(C)Sc1cccc(CCC(O)c2ccccc2)c1NC(=O)CC1c2ccccc2Oc2ccccc21 (centres undefined)
68 to 74 | CCCCC1(CCCC)C(=O)N(C(C)(C)C)CC(C)(C)N1OC(C)(C)C#N
172 to 173 | O=[N+]([O-])c1ccc(S(=O)(=O)Nc2cccc(F)c2)c([N+](=O)[O-])c1

Structure (SMILES) | melting point [°C]
Clc1ccc2c(C3CCNCC3)c[nH]c2c1Cl | 254 to 257
CCC(c1ccccc1)c1c(O)c2c(oc1=O)CCCCCC2 (centres undefined) | 201 to 202
COC(=O)CCc1cc2c(s1)-n1c(C)nnc1C(C)N=C2c1ccccc1Cl (centres undefined) | 131 to 132
